# Source: patent publication US20090076172A1, “Prolonged Deactivation” (priority 2004, published 2009)
# Biological target: T1, Der p1 allergen (Dermatophagoides pteronyssinus, UniProt P08176)
# T1 construct: House dust was passed through a number of sieves and the fraction smaller than 53 μm was collected; from tissue; host or cells: house dust (sieved fraction smaller than 53 μm)
# Assay: Der p1 allergen reduction in house dust after vapour exposure in a booth (ELISA)
# Settings: 0.8 ml β-pinene on 6 ml water vaporised by oil burner, house dust on PTFE tray, vs pre-treatment control
# Source text: When using house dust for allergen denaturing tests an inherent difficulty is the variability of the amount of allergen in each small sample, even when taken from the same dust reservoir. The amount of dust in the pre-treatment sample must be accurately estimated in order to determine the extent of any allergen denaturing. In these tests the dust sample was applied to the test exposure surface and then one half of this surface dust was removed to measure the control pre-treatment allergen level of that specific sample. Each control was directly relevant to each sample, which gave the best possible estimate of the level of allergen in the sample before exposure to possible denaturant. All tests employed a glass reinforced plastic booth of size 0.7 m×0.7 m×1.0 m. All tests had 5 or 6 replicates. Average values are stated.
# The following Examples all measure the reduction of the house dust mite Dermatophagoides pteronyssinus allergen—Der p1.
# House dust was passed through a number of sieves and the fraction smaller than 53 μm was collected. 0.025 g of dust was placed in a small sieve to distribute it evenly over the test surface. The test surface was a PTFE (polytetrafluoroethylene—trade mark TEFLON) coated metal tray of size 30 cm×30 cm. The dust was applied to the tray by moving the sieve continuously over the surface while tapping the sieve. One half of the dust was then removed by suction onto an in-line filter and the weight recorded, this was the pre-treatment control. The tray was then placed in the booth. An oil burner containing 0.8 ml of β-pinene floated on 6ml of distilled water was placed in the booth, and the booth was sealed. The oil burner candle was lit and allowed to burn, under the oil/water until all the liquid had been vaporised (approximately 30 minutes). The candle was then smothered. After 24 hours the tray was removed, the dust was collected from it and its weight recorded. The booth was washed with strong detergent between tests.
# The test samples were assayed for the Der p1 allergen using an ELISA (enzyme linked immunosorbent assay) to determine the allergen content. This was then related to the weight of dust that had been present in each sample. All of the samples were multiplied up to compare the amount of allergen expected to be present in a 0.1 g sample of dust. The percentage difference between the control sample and the exposed sample was then obtained. One analysis was carried out on week 0 (24 hours after the tests were completed. Another analysis was carried out after 2 weeks.
# Corresponding tests were carried out and the same ELISA analysis carried out at Week 0 and after 4 weeks.
# T1 sequence (P08176 99-320): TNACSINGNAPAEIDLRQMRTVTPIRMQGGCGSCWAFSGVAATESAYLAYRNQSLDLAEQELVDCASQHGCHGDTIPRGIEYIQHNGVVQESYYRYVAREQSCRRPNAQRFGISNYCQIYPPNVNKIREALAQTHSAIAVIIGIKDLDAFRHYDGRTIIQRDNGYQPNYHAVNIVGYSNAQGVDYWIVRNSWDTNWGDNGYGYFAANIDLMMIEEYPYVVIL
compound,measurement,setting,value
C=C1CCC2CC1C2(C)C (stereo not drawn) [β-pinene],Der p1 allergen reduction,"corresponding (second) test series, Week 0",Week 0-77.5%
same,Der p1 allergen reduction,"corresponding (second) test series, Week 4 (analysis after 4 weeks)",Week 4-91.6%
same,Der p1 allergen reduction,"first test series, Week 0 (24 hours after the tests were completed)",Week 0-68.0%
same,Der p1 allergen reduction,"first test series, Week 2 (analysis after 2 weeks)",Week 2-66.3%
